Assay results reported in ChEMBL document CHEMBL5316326, “Discovery of a Novel Covalent EZH2 Inhibitor Based on Tazemetostat Scaffold for the Treatment of Ovarian Cancer” (J Med Chem, 2023).
The source made the active and inactive calls. The calls are words filed in the database; no cut-off is given here.

Tests used:
PA-1 [1] = assay: Induction of apoptosis in human PA-1 cells assessed as necrotic cells at 10 uM incubated for 48 hrs by AnnexinV-FITC/PI staining based flow cytometry analysis (Rvb= 1.48%); assay type: functional
[2] = target: Protein arginine N-methyltransferase 5 (Homo sapiens) (UniProt O14744); assay: Inhibition of PRMT5 (unknown origin) at 1 to 10 uM by AlphaLlSA assay; conditions: dose 1-10 µM
PA-1 [3] = assay: Induction of apoptosis in human PA-1 cells assessed as necrotic cells at 5 uM incubated for 48 hrs by AnnexinV-FITC/PI staining based flow cytometry analysis (Rvb= 1.48%); assay type: functional
PA-1 [4] = assay: Inhibition of colony formation in human PA-1 cells assessed as reduction in size of colonies at 0.25 to 10 uM incubated for 14 days with medium change every 3 days by crystal violet staining method; assay type: functional, cell-based; conditions: dose 0.25-10 µM, time 14.0 day
[5] = test system: Histone-lysine N-methyltransferase EZH2 (Homo sapiens), Q15910 [Y641F]; assay: Inhibition of EZH2 […] mutant (unknown origin) at 1 nM by AlphaLlSA assay
A2780 [6] = assay: Antiproliferative activity against human A2780 cells assessed as inhibition of cell proliferation incubated for 3 to 5 days by MTT assay; assay type: functional, cell-based; conditions: time 3-5 day, TDE = time-dependent effect
ES-2 = assay: Antiproliferative activity against human ES2 cells assessed as inhibition of cell proliferation incubated for 72 hrs by MTT assay; assay type: functional, cell-based; conditions: ES-2, 72 h
[7] = target: T1, Histone-lysine N-methyltransferase EZH2 (Homo sapiens, UniProt Q15910); assay: Inhibition of EZH2 methyltransferase activity in human A2780 cells assessed as reduction in H3K27me3 level at 10 uM and measured upto 4 days by Western blot analysis; assay type: cell-based; conditions: time <= 4.0 day, TDE = time-dependent effect
Target sequence in this assay (Q15910 whole entry, looked up): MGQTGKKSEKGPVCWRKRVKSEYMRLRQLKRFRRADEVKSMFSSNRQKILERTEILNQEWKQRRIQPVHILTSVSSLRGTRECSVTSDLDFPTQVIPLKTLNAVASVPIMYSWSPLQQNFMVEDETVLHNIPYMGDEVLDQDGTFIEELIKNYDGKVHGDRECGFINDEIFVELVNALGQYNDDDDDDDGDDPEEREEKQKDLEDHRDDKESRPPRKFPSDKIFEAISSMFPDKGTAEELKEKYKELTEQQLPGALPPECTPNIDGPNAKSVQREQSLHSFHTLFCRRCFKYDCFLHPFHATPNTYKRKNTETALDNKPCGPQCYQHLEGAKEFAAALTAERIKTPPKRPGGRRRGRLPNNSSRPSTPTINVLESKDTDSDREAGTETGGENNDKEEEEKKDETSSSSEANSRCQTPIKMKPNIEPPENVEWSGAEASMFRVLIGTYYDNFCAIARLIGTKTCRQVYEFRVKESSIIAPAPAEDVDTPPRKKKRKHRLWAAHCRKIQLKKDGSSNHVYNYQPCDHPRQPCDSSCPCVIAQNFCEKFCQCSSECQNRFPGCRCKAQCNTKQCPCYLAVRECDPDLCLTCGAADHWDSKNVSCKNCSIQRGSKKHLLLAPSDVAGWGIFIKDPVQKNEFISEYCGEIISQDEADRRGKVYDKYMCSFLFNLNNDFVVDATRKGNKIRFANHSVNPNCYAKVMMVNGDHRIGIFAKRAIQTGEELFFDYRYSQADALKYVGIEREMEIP

OVCAR-3 = assay: Antiproliferative activity against human OVCAR-3 cells assessed as inhibition of cell proliferation incubated for 72 hrs by MTT assay; assay type: functional, cell-based; conditions: OVCAR-3, 72 h
[8] = MRT(t) in Sprague-Dawley rat at 100 mg/kg, po and measured upto 24 hrs by LC-MS/MS analysis; assay type: ADME, organism-based; conditions: in vivo
BT-549 = assay: Antiproliferative activity against human BT-549 cells assessed as inhibition of cell proliferation incubated for 72 hrs by MTT assay; assay type: functional, cell-based; conditions: BT-549, 72 h
PA-1 [9] = assay: Induction of apoptosis in human PA-1 cells assessed as late apoptotic cells at 20 uM incubated for 48 hrs by AnnexinV-FITC/PI staining based flow cytometry analysis (Rvb= 3.09%); assay type: functional
PA-1 [10] = assay: Antitumor activity against human PA-1 cells xenografted in BALB/C nude mouse assessed as increase apoptosis by measuring cleaved caspase-3 positive cells at 75 to 150 mg/kg,po BID for 21 days by immunohistochemical analysis; assay type: functional, organism-based; conditions: dose 75-150 mg/kg, time 21.0 day
[11] = AUCt in Sprague-Dawley rat at 5 mg/kg, iv and measured upto 24 hrs by LC-MS/MS analysis; assay type: ADME, organism-based; set-up: time < 24 hrs, dose 5 mg/kg, route iv; conditions: in vivo
A2780 [12] = assay: Inhibition of colony formation in human A2780 cells assessed as reduction in size of colonies at 0.25 to 10 uM incubated for 14 days with medium change every 3 days by crystal violet staining method; assay type: functional, cell-based; conditions: dose 0.25-10 µM, time 14.0 day
PA-1 [13] = assay: Antitumor activity against human PA-1 cells xenografted in BALB/C nude mouse assessed as tumor growth inhibition at 75 mg/kg,po BID for 21 days; assay type: functional; conditions: PA-1, 504 h, time 21 day, read-out: TGI
[14] = target: Histone-lysine N-methyltransferase EZH1 (Homo sapiens) (UniProt Q92800); assay: Inhibition of EZH1 (unknown origin) by AlphaLlSA assay
[15] = test system: Histone-lysine N-methyltransferase EZH2 (Homo sapiens), Q15910 [Y641N]; assay: Inhibition of EZH2 […] mutant (unknown origin) at 1 nM by AlphaLlSA assay
[16] = AUCt in Sprague-Dawley rat at 100 mg/kg, po and measured upto 24 hrs by LC-MS/MS analysis; assay type: ADME, organism-based; set-up: time < 24 hrs, dose 100 mg/kg, route po; conditions: in vivo
[17] = MRT(t) in Sprague-Dawley rat at 5 mg/kg, iv and measured upto 24 hrs by LC-MS/MS analysis; assay type: ADME, organism-based; conditions: in vivo
[18] = target: T1, Histone-lysine N-methyltransferase EZH2; assay: Binding affinity to wild type recombinant EZH2 (494 to 737 residues) (unknown origin) expressed in Escherichia coli assessed as adduct formation incubated for 2 hrs by LC-MS analysis
Target sequence in this assay (Q15910 whole entry, looked up): as above

NCI-H1703 = assay: Antiproliferative activity against human NCI-H1703 cells assessed as inhibition of cell proliferation incubated for 72 hrs by MTT assay; assay type: functional, cell-based; conditions: NCI-H1703, 72 h
[19] = Oral bioavailability in Sprague-Dawley rat at 100 mg/kg and measured upto 24 hrs by LC-MS/MS analysis; assay type: ADME, organism-based; conditions: in vivo
[20] = Toxicity in BALB/C nude mouse xenografted with human PA-1 cells assessed as pathological changes in heart at 75 to 150 mg/kg,po BID for 21 days by H&E staining based microscopic analysis; assay type: organism-based; conditions: in vivo, 504 h, dose 75-150 mg/kg, time 21 day
PA-1 [21] = assay: Induction of apoptosis in human PA-1 cells assessed as necrotic cells at 20 uM incubated for 48 hrs by AnnexinV-FITC/PI staining based flow cytometry analysis (Rvb= 1.48%); assay type: functional
[22] = target: T1, Histone-lysine N-methyltransferase EZH2; assay: Inhibition of EZH2 methyltransferase activity in human A2780 cells assessed as reduction in H3K27me3 level incubated for 3 days by Western blot analysis; assay type: cell-based
Target sequence in this assay (Q15910 whole entry): as the sequence (Q15910 whole entry, looked up) above

OAW-42 = assay: Antiproliferative activity against human OAW-42 cells assessed as inhibition of cell proliferation incubated for 72 hrs by MTT assay; assay type: functional, cell-based; conditions: OAW-42, 72 h
HEY = assay: Antiproliferative activity against human HEY cells assessed as inhibition of cell proliferation incubated for 72 hrs by MTT assay; assay type: functional, cell-based
MCF7 = assay: Antiproliferative activity against human MCF7 cells assessed as inhibition of cell proliferation incubated for 72 hrs by MTT assay; assay type: functional, cell-based; conditions: MCF7, 72 h
PA-1 [23] = assay: Induction of apoptosis in human PA-1 cells assessed as late apoptotic cells at 40 uM incubated for 48 hrs by AnnexinV-FITC/PI staining based flow cytometry analysis (Rvb= 3.09%); assay type: functional
[24] = test system: Histone-lysine N-methyltransferase EZH2 (Homo sapiens), Q15910 [Y641N]; conditions: dose 10.0 nM
Description: Inhibition of EZH2 Y614N mutant (unknown origin) at 10 nM by AlphaLlSA assay

SK-OV-3 = assay: Antiproliferative activity against human SK-OV-3 cells assessed as inhibition of cell proliferation incubated for 72 hrs by MTT assay; assay type: functional, cell-based; conditions: SK-OV-3, 72 h
PA-1 [25] = assay: Induction of apoptosis in human PA-1 cells assessed as early apoptotic cells at 5 uM incubated for 48 hrs by AnnexinV-FITC/PI staining based flow cytometry analysis (Rvb= 6.89%); assay type: functional
PA-1 [26] = assay: Antitumor activity against human PA-1 cells xenografted in BALB/C nude mouse assessed as tumor growth inhibition at 150 mg/kg,po BID for 21 days; assay type: functional; conditions: PA-1, 504 h, time 21 day, read-out: TGI
PA-1 [27] = assay: Induction of apoptosis in human PA-1 cells assessed as viable cells at 20 uM incubated for 48 hrs by AnnexinV-FITC/PI staining based flow cytometry analysis (Rvb= 88.53%); assay type: functional; conditions: read-out: Activity

Histone-lysine N-methyltransferase EZH2 (Homo sapiens), Q15910 [Y641N], sequence (Q15910 whole entry Y641N): as the sequence (Q15910 whole entry, looked up) above, with Y641N counted along it
Histone-lysine N-methyltransferase EZH2 (Homo sapiens), Q15910 [Y641F], sequence (Q15910 whole entry Y641F, looked up): as the sequence (Q15910 whole entry, looked up) above, with Y641F counted along it
Histone-lysine N-methyltransferase EZH1 (Homo sapiens), sequence (Q92800 whole entry): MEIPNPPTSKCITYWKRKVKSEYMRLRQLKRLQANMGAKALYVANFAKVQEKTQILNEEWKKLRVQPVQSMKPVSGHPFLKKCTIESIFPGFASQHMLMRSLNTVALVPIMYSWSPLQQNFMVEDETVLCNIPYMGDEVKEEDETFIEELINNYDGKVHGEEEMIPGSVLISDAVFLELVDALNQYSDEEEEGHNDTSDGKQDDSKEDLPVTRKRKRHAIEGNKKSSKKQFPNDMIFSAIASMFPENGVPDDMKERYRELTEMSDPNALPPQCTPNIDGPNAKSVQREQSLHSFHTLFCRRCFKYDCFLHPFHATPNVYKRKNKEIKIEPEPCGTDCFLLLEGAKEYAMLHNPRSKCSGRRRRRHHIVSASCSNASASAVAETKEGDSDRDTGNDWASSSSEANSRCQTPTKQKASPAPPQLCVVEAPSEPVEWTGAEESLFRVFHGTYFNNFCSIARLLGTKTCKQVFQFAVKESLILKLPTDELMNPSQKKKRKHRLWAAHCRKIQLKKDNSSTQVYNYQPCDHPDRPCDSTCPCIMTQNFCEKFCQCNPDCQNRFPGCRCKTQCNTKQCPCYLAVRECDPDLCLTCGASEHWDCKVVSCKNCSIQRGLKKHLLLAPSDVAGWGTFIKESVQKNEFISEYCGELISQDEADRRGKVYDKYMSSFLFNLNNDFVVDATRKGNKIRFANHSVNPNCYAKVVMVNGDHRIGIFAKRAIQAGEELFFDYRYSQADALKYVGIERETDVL
Protein arginine N-methyltransferase 5 (Homo sapiens), sequence (O14744 whole entry): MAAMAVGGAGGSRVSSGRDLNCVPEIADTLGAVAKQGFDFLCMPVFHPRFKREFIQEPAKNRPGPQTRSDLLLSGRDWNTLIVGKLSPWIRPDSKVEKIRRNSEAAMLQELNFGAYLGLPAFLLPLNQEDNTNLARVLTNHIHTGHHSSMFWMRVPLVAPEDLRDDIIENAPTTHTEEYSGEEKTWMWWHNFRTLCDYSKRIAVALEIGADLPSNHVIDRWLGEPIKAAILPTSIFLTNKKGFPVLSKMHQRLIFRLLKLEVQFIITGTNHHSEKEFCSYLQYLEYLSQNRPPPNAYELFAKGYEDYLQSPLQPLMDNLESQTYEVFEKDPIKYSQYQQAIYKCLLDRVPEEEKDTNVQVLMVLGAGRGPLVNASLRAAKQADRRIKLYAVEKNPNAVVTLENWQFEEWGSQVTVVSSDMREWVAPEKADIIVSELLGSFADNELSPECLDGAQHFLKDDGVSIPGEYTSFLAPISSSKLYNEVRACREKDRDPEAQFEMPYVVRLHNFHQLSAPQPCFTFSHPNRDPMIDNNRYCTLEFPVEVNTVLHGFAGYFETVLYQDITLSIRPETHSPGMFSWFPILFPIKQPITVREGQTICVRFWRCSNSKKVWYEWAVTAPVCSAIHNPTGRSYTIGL

inhibition [2]: inactive
inhibition [5]: Active
inhibition [7]: Tde
IC50 (OVCAR-3): 35.6 µM
MRT last at 24 h [8]: 1.73 h
IC50 (BT-549): 18.9 µM
AUCt [11]: 7225.47 ng·h/mL
inhibition [14]: Active
inhibition [15]: Active
AUC(0-t) at 24 h [16]: 12600 ng·h/mL
MRT(t) [17]: 0.26 h
Activity [18]: Active
IC50 (NCI-H1703): 26.3 µM
bioavailability [19]: 8.73%
IC50 [22]: 1.27 µM
IC50 (MCF7): 56.2 µM
inhibition [24]: Active
IC50 (SK-OV-3): 56.4 µM
Compound: C=CC(=O)Nc1ccc(C)c(-c2cc(C(=O)NCc3c(C)cc(C)[nH]c3=O)c(C)c(N(CC)C3CCOCC3)c2)c1
Activity (PA-1 [1]): 0.94%
Activity (PA-1 [3]): 1.22%
inhibition (PA-1 [4]): Dose-Dependent Effect
Activity (A2780 [6]): Tde
IC50 (ES-2): 36.4 µM
Activity (PA-1 [9]): 14.41%
Activity (PA-1 [10]): Active
inhibition (A2780 [12]): Dose-Dependent Effect
inhibition in vivo at 75 mg/kg (PA-1 [13]): 45.3%
Activity [20]: Non-Toxic
Activity (PA-1 [21]): 3.36%
IC50 (OAW-42): > 100 µM
IC50 (HEY): 35.5 µM
Activity (PA-1 [23]): 2.21%
Activity (PA-1 [25]): 10.39%
inhibition in vivo at 150 mg/kg (PA-1 [26]): 78.2%
viability at 20 µM (PA-1 [27]): 50.5%
